# Experimental data reported in publication PMC6920794, “Evaluation of Novel Chalcone-Thiosemicarbazones Derivatives as Potential Anti-Leishmania amazonensis Agents and Its HSA Binding Studies” (Biomolecules, 2019).
# Columns and labels:
# [1] = constant of substituent 4-X; cited from earlier work
# [2] = test system: murine peritoneal macrophages; assay: Macrophage cytotoxicity (resazurin); format: cell-based
# Method: Peritoneal macrophages from albino laboratory-bred strain (BALB/c) mice were obtained in RPMI 1640 medium at pH 7.2 (Gibco, New York, NY, USA) supplemented with 10% (v/v) heat-inactivated fetal bovine serum, 100 U/mL penicillin and 0.1 mg/mL of streptomycin and distributed (1 × 10^6 macrophages/well) in triplicate in 96-well plates (Falcon Co., Franklin Lakes, USA) and incubated for 1 h in a 5% CO2 atmosphere incubator at 310K. The supernatant was removed, and the compounds were added to the plate at concentrations from 10 µM to 50 µM. Next, the cultures were incubated for 48 h in a CO2 incubator at 310K. After incubation, the supernatant was removed and a resazurin solution (50 µM) was added to each well and incubated at 310K for 4 h. Furthermore, the fluorescence was measured using a wavelength of 560 nm for excitation and 590 nm for detection (Molecular Devices, Silicon Valley, USA). Results were expressed as the percentage of viable cells compared to the control cells treated with the highest DMSO dose used to dissolve the drugs. The 50% cytotoxic concentration (CC50) was calculated using GraphPad Prism 6.0 software (GraphPad Company, San Diego, CA, USA).
# [3] = test system: L. amazonensis axenic amastigotes; assay: Axenic amastigotes assay (resazurin); format: cell-based; conditions: Leishmania amazonensis, 72 h of culture, table title says 48 h
# Method: Promastigote forms of L. amazonensis (MHOM/BR/77/LTB0016) were grown to a stationary phase, washed once in phosphate buffer solution (PBS) (pH = 7.4) and adjusted to 5 × 10^6 parasites/mL in Schneider’s medium, supplemented with 20% fetal bovine solution (FBS) pH = 5.5 and maintained at 305K. After 5 days of cultivation, the rounded forms without free flagella were obtained and, after heat shock, were used in the appropriate assays. To evaluate the activity against axenic amastigotes, the parasites were incubated with increasing concentrations of the prototypes (diluted in DMSO) for 72 h at 305K. These assays were performed in triplicate in 96-well flat bottom plates (Falcon Co, Franklin Lakes, USA). The leishmanicidal activity was evaluated by adding 22 μl of resazurin to each well. After 4 h, the cell viability was measured as described above. Calculation of the IC50 values was determined in relation to the control by a sigmoidal model using GraphPad Prism 6.0 software.
# [4] = test system: L. amazonensis promastigotes; assay: Promastigote assay (MTT); format: cell-based, Leishmania amazonensis; conditions: after 48 h of culture (table title); for IC50: Leishmania amazonensis
# Method: Leishmania amazonensis (MHOM/BR/77/LTB0016) were regularly isolated from infected mice and maintained in culture as promastigotes through weekly passages in Schneider’s medium (Sigma Aldrich, St. Louis, MO, USA) supplemented with 10% (v/v) heat-inactivated fetal calf serum, penicillin (100 UI/mL), and streptomycin (100 µg/mL) at 299K. Parasites were maintained until the 10th passage. The Animal Ethics Committee of the Oswaldo Cruz Foundation (license number L026/2015) approved this study.
# Promastigotes of L. amazonensis (1 × 10^6 promastigotes/mL) in the 4th day on culture in the conditions described above were incubated with the chalcones serially diluted in culture medium (0.032% v/v DMSO at the highest concentration tested) on a 96-well cell culture plate (TPP™ test plate, Switzerland). The assayed concentrations ranged from 50 to 1.56 µM for all chalcone-thiosemicarbazones (5a–g) and for pentamidine (Sigma Aldrich, St. Louis, MO, USA). […] All compounds were analyzed in at least three experiments performed in triplicate. Pentamidine was used as the reference drug and diluted in the same concentrations used for 5a–g. The vehicle (DMSO) had no effect on the parasites.
# The antileishmanial activity was evaluated by adding 22 µL of 3-(4,5-dimethylthiazol-2-yl)-2-5diphenyltetrazolium bromide (MTT) at 5 mg/mL (Sigma Aldrich, St. Louis, MO, USA) to each well. After 2 h, 80 µL of DMSO was added and the optical density was determined at a wavelength of 570 nm in a microplate reader (µQuant Bio-Tek Instruments®, Winooski). The assays were carried out in triplicate in 96-well plates (Costar, New York, USA). The inhibition percentage was estimated by the comparison with the non-treated control. The values for the inhibitory concentration for 50% of the promastigotes (IC50) were calculated by a sigmoidal model.
# [5] = test system: L. amazonensis intracellular amastigotes; assay: Intracellular amastigotes assay in infected macrophages; format: cell-based, Leishmania amazonensis; conditions: for IC50: L. amazonensis-infected murine peritoneal macrophages, 48 h of culture; for Selectivity Index (SI): SI = LD50/IC50 intracellular amastigotes
# Method: Peritoneal macrophages were obtained BALB/c mice with cold Roswell Park Memorial Institute (RPMI) 1640 medium (Sigma Aldrich, St. Louis, MO, USA) supplemented as above. The cell suspension was adjusted to 1 × 10^6 macrophage/mL and incubated in a LAB-TEK 8-chamber slide (Nunc, Roskilde, Denmark) at 310K and 5% CO2 for 1 h. Non-adherent cells were removed and stationary-phase L. amazonensis promastigotes were added at a 3:1 parasite/macrophage ratio. The cultures were incubated for a further 4 h, and free parasites were removed. The chambers were washed, and the monolayers were incubated with the compounds for 48 h. Infected macrophages incubated only in the culture medium were used as controls to compare with the infected treated macrophages. […] The cultures were fixed in methanol and stained with the hematological system Instant Prov (Newprov®, Curitiba, Brazil). The slides were examined by light microscopy, and the number of infected macrophages and the mean number of parasites per macrophage were determined in 100 cells counted. The experiments were performed twice in triplicate. The percentage of infected macrophages was calculated by dividing the number of infected macrophages by the total number of macrophages (infected and uninfected) counted on the slides, multiplied by 100. To determine the infection index, the percentage of infected macrophages was multiplied by the mean number of parasites per macrophage. The percentage inhibition of infection was calculated by multiplying the difference between the infection index of the control and the compound by 100 and dividing by the infection index (IF) of the control using the Equation (1):IF = % infected cells × amastigotes number/total number of macrophages(1) The IC50 ± SD (SD: standard deviation) values were obtained by a sigmoidal model using Origin 6.0 with statistical error limits up to 10%. All tests were conducted in duplicate for each concentration, and two independent assays were performed.
# [6] = Leishmania amazonensis, Peritoneal macrophage, in Mus musculus, 48 h
Structure (SMILES),Hammett constant σp [1],Hansh constant π (lipophilicity) [1],Taft constant Es [1],molecular refractivity MR [1],"Macrophages LD50 ([2]; BALB/c, mouse, 48 h, pH 7.2) [µM]",IC50 [3] [µM],IC50 [4] [µM],"IC50 [5, 6] [µM]",Selectivity Index (SI) [5],melting point [°C],Promastigotes IC50 [4],IC50 [5] [µM],"Macrophages LD50 ([2]; murine peritoneal macrophages, 48 h of culture) [µM]","IC50 ([5]; Leishmania amazonensis, Peritoneal macrophage) [µM]"
"NC(=S)N/N=C(\C=C\c1ccccc1)c1ccccc1 [Compound 5a, (1E,2E)-3-(phenyl)-1-phenylprop-2-en-1-one thiosemicarbazone]",0.00,0.00,0.00,0.00,40.98 ± 1.12,6.88 ± 1.09,14.7 ± 0.31,–,–,–,–,–,–,–
"Cc1ccc(/C=C/C(=N\NC(N)=S)c2ccccc2)cc1 [Compound 5b, (1E,2E)-3-(4′-methylphenyl)-1-phenylprop-2-en-1-one thiosemicarbazone]",−0.14,0.56,−0.25,0.57,56.35 ± 0.78,7.08 ± 1.03,14.8 ± 1.92,5.95 ± 0.61,9.47,–,–,–,–,–
"N#Cc1ccc(/C=C/C(=N\NC(N)=S)c2ccccc2)cc1 [Compound 5c, (1E,2E)-3-(4′-cyanophenyl)-1-phenylprop-2-en-1-one thiosemicarbazone]",0.71,−0.57,−0.51,0.63,–,–,–,–,–,195 to 196,no significant activity,–,–,–
"NC(=S)NN=C(C=Cc1ccc(F)cc1)c1ccccc1 [Compound 5d, (1E,2E)-3-(4′-fluorphenyl)-1-phenylprop-2-en-1-one thiosemicarbazone]",0.15,0.14,−0.46,0.10,35.47 ± 1.38,5.57 ± 1.15,13.1 ± 1.85,3.4 to 5.95,–,–,–,> 3.13,–,–
"NC(=S)N/N=C(\C=C\c1ccc(Br)cc1)c1ccccc1 [Compound 5f, (1E,2E)-3-(4′-bromophenyl)-1-phenylprop-2-en-1-one thiosemicarbazone]",0.26,0.86,−1.16,0.89,44.24 ± 4.21,4.24 ± 1.07,12.5 ± 0.99,–,–,–,–,–,–,–
"NC(=S)N/N=C(\C=C\c1ccc([N+](=O)[O-])cc1)c1ccccc1 [Compound 5g, (1E,2E)-3-(4′-nitrophenyl)-1-phenylprop-2-en-1-one thiosemicarbazone]",0.81,−0.28,−1.01,0.74,–,–,–,–,–,188 to 190,no significant activity,–,–,–
"N=C(N)c1ccc(OCCCCCOc2ccc(C(=N)N)cc2)cc1 [Pentamidine, pentamidine, reference compound]",–,–,–,–,–,12.3 ± 1.17,4.9 ± 0.6,–,2.32,–,–,–,25.85 ± 4.06,11.1 ± 1.98
